Laboratory results from ChEMBL document CHEMBL4842347, “Structure-activity relationship and biochemical evaluation of novel fibroblast activation protein and prolyl endopeptidase inhibitors with α-ketoamide warheads” (Eur J Med Chem, 2021).
Activity calls are given as the source filed them. The calls are words filed in the database; no cut-off is given here.

Tests used:
[1] = Metabolic stability in human plasma incubated for 2 hrs by LC/MS-MS analysis; format: ADME, cell-free
[2] = Drug degradation in human plasma measured up to 1 min incubated for 2 hrs by LC/MS-MS analysis; format: ADME, cell-free
[3] = Drug degradation in mouse liver microsomes measured up to 1 min incubated for 2 hrs by LC/MS-MS analysis; format: ADME, Microsome
CCRF-CEM = experiment: Cytotoxicity against human CCRF-CEM cells assessed as reduction in cell viability incubated for 72 hrs measured by […]-based colorimetric assay; format: functional
HepG2 = experiment: Cytotoxicity against human HepG2 cells assessed as reduction in cell viability incubated for 72 hrs measured by […]-based colorimetric assay; format: functional
HeLa = experiment: Cytotoxicity against human HeLa cells assessed as reduction in cell viability incubated for 72 hrs measured by […]-based colorimetric assay; format: functional
HL-60 = experiment: Cytotoxicity against human HL-60 cells assessed as reduction in cell viability incubated for 72 hrs measured by […]-based colorimetric assay; format: functional
[4] = Inhibition of PREP (unknown origin) using fluorogenic substrate by spectrometric assay; set-up: species or system Homo sapiens
Dipeptidyl peptidase 4 = Dipeptidyl peptidase 4 (Homo sapiens, UniProt P27487); experiment: Inhibition of SF-tagged DPP4 (unknown origin) expressed in Drosophila S2 cells using fluorogenic substrate by spectrometric analysis; format: cell-based
Dipeptidyl peptidase 4, sequence (P27487 whole entry): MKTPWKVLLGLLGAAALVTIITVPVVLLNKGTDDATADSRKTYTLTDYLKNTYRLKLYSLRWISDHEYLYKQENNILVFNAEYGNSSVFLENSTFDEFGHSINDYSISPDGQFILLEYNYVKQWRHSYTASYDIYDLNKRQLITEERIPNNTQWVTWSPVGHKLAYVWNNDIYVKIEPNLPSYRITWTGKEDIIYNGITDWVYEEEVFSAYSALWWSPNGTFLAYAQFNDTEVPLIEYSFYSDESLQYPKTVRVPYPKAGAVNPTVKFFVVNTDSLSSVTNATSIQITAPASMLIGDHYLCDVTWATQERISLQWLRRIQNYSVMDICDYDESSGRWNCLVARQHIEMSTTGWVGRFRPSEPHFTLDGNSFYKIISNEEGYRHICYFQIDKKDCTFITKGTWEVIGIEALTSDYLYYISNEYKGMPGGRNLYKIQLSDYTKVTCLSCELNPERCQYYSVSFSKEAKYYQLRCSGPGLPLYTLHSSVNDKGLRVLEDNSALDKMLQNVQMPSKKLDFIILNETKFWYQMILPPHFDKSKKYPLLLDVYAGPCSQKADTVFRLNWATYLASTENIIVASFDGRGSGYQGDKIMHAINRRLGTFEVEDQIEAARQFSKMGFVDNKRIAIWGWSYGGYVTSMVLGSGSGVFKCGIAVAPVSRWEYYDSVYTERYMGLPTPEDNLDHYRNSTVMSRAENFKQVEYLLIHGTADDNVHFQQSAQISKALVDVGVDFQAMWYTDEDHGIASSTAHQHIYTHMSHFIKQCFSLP

| Stabilty [1] | Stabilty [2] | Stabilty [3] | IC50 [4] [nM] | IC50 (Dipeptidyl peptidase 4) [nM] | SMILES | Activity (CCRF-CEM) | Activity (HepG2) | Activity (HeLa) | Activity (HL-60) |
| --- | --- | --- | --- | --- | --- | --- | --- | --- | --- |
| Stable | Unstable | Unstable | – | – | COC(=O)[C@H](CCC(=O)OCc1ccccc1)NC(=O)CNC(=O)C(=O)[C@@H]1CCCN1C(=O)CNC(=O)c1ccnc2ccccc12 | inactive | inactive | inactive | inactive |
| Stable | – | Unstable | – | – | O=C(NCc1ccccc1)C(=O)[C@@H]1CCCN1C(=O)CNC(=O)c1ccnc2ccccc12 | inactive | inactive | inactive | inactive |
| Stable | – | Unstable | 0.43 | – | COc1ccc(CCNC(=O)C(=O)[C@@H]2CCCN2C(=O)CNC(=O)c2ccnc3ccccc23)cc1OC | inactive | inactive | inactive | inactive |
| Stable | – | – | 0.24 | – | COc1ccc(CNC(=O)C(=O)[C@@H]2CCCN2C(=O)CNC(=O)c2ccnc3ccccc23)cc1OC | inactive | inactive | inactive | inactive |
| Stable | Unstable | Unstable | 0.36 | > 4000 | COC(=O)[C@H](Cc1ccccc1)NC(=O)CNC(=O)C(=O)[C@@H]1CCCN1C(=O)CNC(=O)c1ccnc2ccccc12 | inactive | inactive | inactive | inactive |
